This is an account of results in patent publication US12606561B2, “Substituted pyrazolo[1,5-a][1,3,5]triazines as CDK inhibitors” (QURIENT CO., LTD., priority 2018, dated 2026).

Structures are written as SMILES. Read-outs that look alike come from different tables or passages of the source.

As a reminder, the IC50 is the concentration that inhibits the measured activity by half.

One assay addresses T1, CDK1/Cyclin B (Homo sapiens, UniProt P06493).
T1 construct: purchased Invitrogen PR4768C
Nature of the assay: Enzymatic assay for CDK1 (LANCE Ultra kinase assay, FRET based). The assay is classed as biochemical. As to conditions: ATP at Km; read-out: CDK1 enzymatic activity IC50. In a few lines:
(§1)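 Kinase activity of each purified CDK/cyclin complex was followed in a FRET format where a Europium anti-phospho-antibody recognises phosphorylated ULight-labeled peptide. ATP was held at its Km.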
(In general: In TR-FRET formats the signal depends on donor and acceptor labels being close together.)

The test system of a further assay is A2780. As to the kind of experiment: A2780 viability assay (CellTiter-Glo, 72 hours). In kind it is cell-based. As to conditions: Homo sapiens; A2780 cells. A digest of the protocol:
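Each line was plated at its own density (1×10^4, 5×10^3 and 1×10^3 cells/well for MV4-11, OVCAR-3 and A2780 respectively) in RPMI-1640 with 10% FBS. Treatment with compound, 0.0015 uM to 10 uM and DMSO under 0.1%, lasted 72 h. Surviving cells were quantified by CellTiter-Glo.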

In assay [1] the target is T2, 28 CDKs family protein kinases (Homo sapiens, UniProt Q00535). Nature of the assay: In vitro IC50 profile for CDKs family kinase (33PanQinase Activity Assay, ProQinase). The assay is classed as biochemical. Details: fused on or other part: GST or His tag. Particulars: CDK5/p25NCK; read-out: CDK7 selectivity profile in CDKs family, IC50. The procedure:
(§2) The IC50 profile of compound 11 was determined using 28 CDKs family protein kinases through ProQinase GmbH (Freiburg, Germany). All the protocol and materials had been provided by ProQinase GmbH. Briefly, in the process, 90 μl H2O were added to each well of a compound dilution plate. To minimize potential precipitation, the H2O was added to the plate only a few minutes before the transfer of the compound solutions into the assay plates. The plate was shaken thoroughly, resulting in a “compound dilution plate/10% DMSO”. The compound dilution plate(s) were discarded at the end of the working day. For the assays (see below), 5 μl solution from each well of the compound dilution plate were transferred into the assay plates. The final volume of the assay was 50 μl. […] Kinases from external vendors, Carna Biosciences Inc.; Invitrogen Corp.; and Millipore Corp., were expressed, purified and quality-controlled by virtue of the vendors readings. […] Incorporation of ^33Pi was determined with a microplate scintillation counter (Microbeta, Wallac). […] The residual activity (in %) for each well of a particular plate was calculated by using the following formula: Res. Activity (%)=100×[(cpm of compound−low control)/(high control−low control)].
Target sequence in this assay (Q00535 whole entry, the tested form may be a part): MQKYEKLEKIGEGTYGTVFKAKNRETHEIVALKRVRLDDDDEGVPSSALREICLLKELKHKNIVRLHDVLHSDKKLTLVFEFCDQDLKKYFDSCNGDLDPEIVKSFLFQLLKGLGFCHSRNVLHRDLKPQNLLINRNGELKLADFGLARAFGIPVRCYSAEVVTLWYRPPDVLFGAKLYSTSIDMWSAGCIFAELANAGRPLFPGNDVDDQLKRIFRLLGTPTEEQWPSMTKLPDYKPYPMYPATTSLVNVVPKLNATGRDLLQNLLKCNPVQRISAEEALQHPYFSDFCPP

The target of assay [2] is T2, 28 CDKs family protein kinases. The description is as above. In kind it is biochemical. Details: purchased ProQinase GmbH; host or cells: Sf9 insect cells or E. coli. Particulars: CDK5/p35NCK; read-out: CDK7 selectivity profile in CDKs family, IC50. How it is done:
as §2
Target sequence in this assay (Q00535 whole entry, the tested form may be a part): as above
Target sequence in this assay (Q15078 whole entry partner, the tested form may be a part): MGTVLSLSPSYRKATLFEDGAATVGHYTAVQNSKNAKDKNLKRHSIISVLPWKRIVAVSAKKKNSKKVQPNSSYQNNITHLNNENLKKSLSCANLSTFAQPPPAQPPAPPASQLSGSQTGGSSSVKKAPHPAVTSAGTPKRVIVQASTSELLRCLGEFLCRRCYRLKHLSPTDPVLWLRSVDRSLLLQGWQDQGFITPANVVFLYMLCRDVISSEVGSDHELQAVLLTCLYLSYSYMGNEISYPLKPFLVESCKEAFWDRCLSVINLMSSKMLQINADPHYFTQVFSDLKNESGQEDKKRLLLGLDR

A further assay deals with T3, CDK7/Cyclin H/MNAT1 (Homo sapiens, UniProt P50613).
T3 construct: purchased Invitrogen PR6749B
Nature of the assay: Enzymatic assay for CDK7 (LANCE Ultra kinase assay, FRET based). In kind it is biochemical. In a few lines: as §1

T3 sequence (P50613 whole entry): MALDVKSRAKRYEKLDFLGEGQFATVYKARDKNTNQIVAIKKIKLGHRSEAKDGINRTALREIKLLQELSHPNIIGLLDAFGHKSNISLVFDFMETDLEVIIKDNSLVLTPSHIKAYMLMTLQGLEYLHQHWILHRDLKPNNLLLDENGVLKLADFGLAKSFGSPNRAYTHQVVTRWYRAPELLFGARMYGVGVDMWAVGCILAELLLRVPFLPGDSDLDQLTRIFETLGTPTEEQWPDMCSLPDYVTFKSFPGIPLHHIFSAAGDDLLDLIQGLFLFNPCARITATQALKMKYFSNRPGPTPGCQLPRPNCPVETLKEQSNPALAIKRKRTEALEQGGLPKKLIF
T3 sequence (P51946 whole entry partner): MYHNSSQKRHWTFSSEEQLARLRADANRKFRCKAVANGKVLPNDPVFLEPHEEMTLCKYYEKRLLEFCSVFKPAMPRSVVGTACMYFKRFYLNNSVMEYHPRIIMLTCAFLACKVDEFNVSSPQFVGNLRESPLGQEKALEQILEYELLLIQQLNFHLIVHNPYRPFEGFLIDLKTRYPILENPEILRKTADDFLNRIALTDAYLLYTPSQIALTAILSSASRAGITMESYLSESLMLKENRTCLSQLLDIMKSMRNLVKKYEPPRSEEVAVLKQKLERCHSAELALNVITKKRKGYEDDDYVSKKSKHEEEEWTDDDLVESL
T3 sequence (P51948 whole entry partner): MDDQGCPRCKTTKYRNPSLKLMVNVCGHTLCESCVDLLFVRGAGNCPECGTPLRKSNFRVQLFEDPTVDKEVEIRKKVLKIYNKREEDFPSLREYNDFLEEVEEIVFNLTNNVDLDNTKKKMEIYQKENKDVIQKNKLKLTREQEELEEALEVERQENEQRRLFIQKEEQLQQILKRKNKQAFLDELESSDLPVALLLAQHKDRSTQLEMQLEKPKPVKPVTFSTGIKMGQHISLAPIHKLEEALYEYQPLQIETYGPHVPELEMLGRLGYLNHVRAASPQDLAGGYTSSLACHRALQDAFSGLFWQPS
T1 sequence (P06493 whole entry): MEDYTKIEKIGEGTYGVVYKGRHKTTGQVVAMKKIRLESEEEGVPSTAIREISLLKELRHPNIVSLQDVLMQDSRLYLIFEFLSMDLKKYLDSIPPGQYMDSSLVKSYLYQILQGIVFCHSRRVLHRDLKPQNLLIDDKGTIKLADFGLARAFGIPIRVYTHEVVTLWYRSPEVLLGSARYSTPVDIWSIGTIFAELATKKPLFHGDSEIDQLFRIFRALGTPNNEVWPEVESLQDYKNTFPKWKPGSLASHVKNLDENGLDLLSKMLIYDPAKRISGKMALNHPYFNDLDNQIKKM
T1 sequence (P14635 whole entry partner): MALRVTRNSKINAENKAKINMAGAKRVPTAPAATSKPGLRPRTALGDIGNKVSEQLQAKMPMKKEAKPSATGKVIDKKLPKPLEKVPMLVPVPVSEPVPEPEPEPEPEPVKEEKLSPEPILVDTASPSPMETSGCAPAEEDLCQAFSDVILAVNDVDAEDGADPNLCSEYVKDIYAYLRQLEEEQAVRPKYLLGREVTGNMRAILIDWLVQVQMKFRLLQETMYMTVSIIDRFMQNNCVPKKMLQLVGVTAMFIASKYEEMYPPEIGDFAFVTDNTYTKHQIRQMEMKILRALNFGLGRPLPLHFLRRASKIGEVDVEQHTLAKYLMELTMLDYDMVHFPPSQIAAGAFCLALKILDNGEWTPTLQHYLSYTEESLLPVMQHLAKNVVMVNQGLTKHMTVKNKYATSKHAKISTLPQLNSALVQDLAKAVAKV

In the case of `CC(C)c1cnn2c(NCc3ccccc3-c3nccc4cc(NC(=O)/C=C/CN(C)C)ccc34)nc(N3CCC(N)CC3)nc12` [Compound 11], the IC50 at CDK1/Cyclin B is greater than 1 µM; in the assay with A2780, less than 1 µM; in assay [1] it was greater than 10 µM; in assay [2], 7.86 µM; at CDK7/Cyclin H/MNAT1 (ATP at Km), less than 0.1 µM. At CDK7/Cyclin H/MNAT1 (CDK7 over CDK1), the “CDK1/CDK7: Selectivity of CDK7 inhibition over CDK1 inhibition” value is “A (A indicates [fold] > 500)”. Further, the “CDK2/CDK7: Selectivity of CDK7 inhibition over CDK2 inhibition” value at CDK7/Cyclin H/MNAT1 (CDK7 over CDK2) was “A (A indicates [fold] > 500)”. The “CDK5/CDK7: Selectivity of CDK7 inhibition over CDK5 inhibition” value at CDK7/Cyclin H/MNAT1 (CDK7 over CDK5) was “A (A indicates [fold] > 500)”.
